Assay [1] deals with Truncated N-terminal huntington 150 Q-EGFP-Neuron 2a cells. Nature of the assay: Measurement of x-Fold (polyglutamine aggregation inhibitory activity). It is filed as cell-based. How it is done:
In the present invention, the polyglutamine aggregation inhibitory activity (x-Fold) can be measured, for example, by the method described in the Example.
The number of the aggregated cells, and the total number of cells were counted by Array Scan V T1 (manufactured by Cellomics, Pittuburg, USA), and the ratio of the aggregated cells to the total number of cells was determined (x-Fold). […]

Another assay deals with transglutaminase (TGase). Nature of the assay: Measurement of TG (TGase inhibitory activity, monodansyl cadaverine / N,N-dimethylcasein fluorescence, FDSS 3000). It is filed as biochemical. Summed up:
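Compound (1 μL of 10 mM stock) added to 0.1 mL reaction: 100 mM HEPES-NaOH pH 7.5, 1 mM CaCl2, 20 μM monodansyl cadaverine, 0.05 mg/mL N,N-dimethylcasein, 5 μg/mL TGase. Rate of fluorescence change at 340 nm measured; DMSO control set to 100; TG50 is the concentration halving activity.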

Where [2] appears, read: polyglutamine aggregation, Truncated N-terminal huntington 150 Q-EGFP-Neuron 2a cells.
[3] abbreviates: ratio of aggregated cells to total number of cells, compound 20 μM, 20 hr, almost 1 without compound, smaller = stronger inhibition.
Where [4] appears, read: TGase activity with compound (10 mM, 1 μL in 0.1 ml enzyme reaction solution), DMSO control taken as 100.
Where [5] appears, read: TGase inhibitory activity measurement, unit not given.
Setting [6] is: polyglutamine aggregation inhibitory activity, Table 1.
[7] abbreviates: TGase inhibitory activity value, Table 1.

Regarding `COc1ccc(B(OCCN(C)C)c2ccc(COCc3ccc(B(OCCN(C)C)c4ccc(OC)cc4)cc3)cc2)cc1` [Example 414, bis(4,4′-(p-methoxyphenyl-N,N-dimethylaminoethoxyboryl)benzyl)ether], the x-Fold in assay [1] (setting [2]) and in assay [1] (setting [3]) was 0.90 in each case. The “TGase activity remaining (% of DMSO control = 100)” value in the assay on transglutaminase (TGase) (setting [4]) and in the assay on transglutaminase (TGase) (setting [5]) was 128 throughout.
`CN(C)CCOB(c1ccc(C(F)(F)F)cc1)c1ccc(C(F)(F)F)cc1` [Example 233]: the x-Fold amounted to 1.12 in assay [1] (polyglutamine aggregation inhibitory activity, Table 1, listed as 4142) and 1.12 in assay [1] (setting [3]). Further, the “TGase activity remaining (% of DMSO control = 100)” value is reported as 112 in the assay on transglutaminase (TGase) (setting [4]) and 112 in the assay with transglutaminase (TGase) (TGase inhibitory activity value, Table 1, listed as 4142).
Regarding `Cc1ccc(B(O)c2ccc(COCc3ccc(B(O)c4ccc(C)c(Cl)c4)cc3)cc2)cc1Cl` [Example 144, bis(3-chloro-4-methylphenylhydroxyboryl 4-benzyl)ether], the x-Fold in assay [1] (setting [3]) stood at 0.87. Further, the “TGase activity remaining (% of DMSO control = 100)” value with transglutaminase (TGase) (setting [4]) came out at 99.
With `NCCOB(c1ccccc1)c1ccc(COCc2ccccc2B(OCCN)c2ccccc2)cc1` [Example 335, (2-(phenylaminoethoxyboryl)benzyl) (4-(phenylaminoethoxyboryl)benzyl)ether], the x-Fold in assay [1] (setting [6]) and in assay [1] (setting [3]) was 1.02 throughout. In addition, the “TGase activity remaining (% of DMSO control = 100)” value in the assay with transglutaminase (TGase) (setting [4]) and with transglutaminase (TGase) (setting [7]) was 91 throughout.
As for `Cc1ccc(Cl)cc1B(OCC1CCCCN1)c1cc(Cl)ccc1C` (stereo not shown) [Example 242, di(5-chloro-2-methylphenyl) 2-piperidinomethylborinate], the x-Fold in assay [1] (setting [3]) is 1.17. For the same molecule, the “TGase activity remaining (% of DMSO control = 100)” value in the assay with transglutaminase (TGase) (setting [4]) was determined as 98.
As for `CCCCB(OCCN)c1ccccc1` [Example 112, aminoethyl normal-butyl phenylborinate], the x-Fold in assay [1] (setting [6]) and in assay [1] (setting [3]) was 0.99 each time. Moreover, the “TGase activity remaining (% of DMSO control = 100)” value with transglutaminase (TGase) (setting [4]) and in the assay on transglutaminase (TGase) (setting [7]) was 123 throughout.
As for `NCCOB(c1ccc(F)c(Cl)c1)c1ccc(F)c(Cl)c1` [Example 77, 2-aminoethyl-bis(3-chloro-4-fluorophenyl)borinate], the x-Fold in assay [1] (polyglutamine aggregation inhibitory activity, Table 1, listed as 6006) is given as 0.91; in assay [1] (setting [3]) it was 0.91. Besides, the “TGase activity remaining (% of DMSO control = 100)” value in the assay on transglutaminase (TGase) (setting [4]) is reported as 98; in the assay with transglutaminase (TGase) (TGase inhibitory activity value, Table 1, listed as 6006), 98.
As to `NC(=O)CCC(N)C(=O)OB(c1ccccc1)c1ccccc1` (stereo not shown) [Example 276, diphenyl(glutaminate-O,N)borane], the x-Fold in assay [1] (polyglutamine aggregation inhibitory activity, Table 1, listed as 854) turned out to be 0.8; in assay [1] (setting [3]) it was 0.8. In addition, the “TGase activity remaining (% of DMSO control = 100)” value in the assay with transglutaminase (TGase) (setting [4]) is 105; in the assay with transglutaminase (TGase) (TGase inhibitory activity value, Table 1, listed as 854) it was 105.
Turning to `NC(COB(c1ccccc1)c1ccc(COCc2ccc(B(OCC(N)Cc3ccccc3)c3ccccc3)cc2)cc1)Cc1ccccc1` (stereo not shown) [Example 205, bis(4,4′-(phenyl 2-amino-2-benzylethoxyboryl)benzyl)ether], the x-Fold in assay [1] (setting [6]) and in assay [1] (setting [3]) was 0.80 in each case. Also, the “TGase activity remaining (% of DMSO control = 100)” value with transglutaminase (TGase) (setting [4]) and in the assay with transglutaminase (TGase) (setting [7]) was 47 throughout.
For the molecule `NCCOB(c1ccc(Cl)cc1F)c1ccc(Cl)cc1F` [Example 84, 2-aminoethyl bis(4-chloro-2-fluorophenyl)borinate], the x-Fold in assay [1] (setting [6]) and in assay [1] (setting [3]) was 0.92 in each case. Further, the “TGase activity remaining (% of DMSO control = 100)” value in the assay with transglutaminase (TGase) (setting [4]) and in the assay on transglutaminase (TGase) (setting [7]) was 91 in each case.
For the molecule “bis((4,4′-phenyldimethylaminoethoxyboryl)benzyloxybenzyl)dimethylamino-ethoxyborane [Example 191]”, the x-Fold in assay [1] (setting [6]) and in assay [1] (setting [3]) was 1.04 in each case. Besides, the “TGase activity remaining (% of DMSO control = 100)” value in the assay with transglutaminase (TGase) (setting [4]) and in the assay on transglutaminase (TGase) (setting [7]) was 85 in each case.
On to `NCCOB(c1ccccc1)c1ccc(B(OCCN)c2ccccc2)o1` [Example 384, bis(2,5-(phenylaminoethoxyboryl))furan], for which the x-Fold in assay [1] (setting [6]) and in assay [1] (setting [3]) was 1.05 in each case. Moreover, the “TGase activity remaining (% of DMSO control = 100)” value in the assay on transglutaminase (TGase) (setting [4]) and in the assay on transglutaminase (TGase) (setting [7]) was 60 in each case.
For the molecule `c1ccc(B(OC2CCCNC2)c2ccc(Oc3ccc(B(OC4CCCNC4)c4ccccc4)cc3)cc2)cc1` (stereo not shown) [Example 431, bis(4,4′-(phenyl-3-piperidyloxyboryl)phenyl)ether], the figures for the x-Fold in assay [1] (setting [6]) and in assay [1] (setting [3]) were 0.57 and 1.02, respectively. Moreover, the “TGase activity remaining (% of DMSO control = 100)” value in the assay with transglutaminase (TGase) (setting [4]) is recorded as 118.
`NCCOB(c1ccc(F)c(F)c1)c1ccc(F)c(F)c1` [Example 87, 2-aminoethyl bis(3,4-difluorophenyl)borinate]: the x-Fold in assay [1] (setting [6]) and in assay [1] (setting [3]) was 1.02 in each case. Moreover, the “TGase activity remaining (% of DMSO control = 100)” value in the assay on transglutaminase (TGase) (setting [4]) and in the assay on transglutaminase (TGase) (setting [7]) was 91 each time.
With `OB(c1ccc(COCc2ccc(B(O)c3cccc4ccccc34)cc2)cc1)c1cccc2ccccc12` [Example 141, bis(4,4′-(1-naphthylhydroxyboryl)benzyl)ether], the x-Fold in assay [1] (setting [6]) and in assay [1] (setting [3]) was 0.92 throughout. Further, the “TGase activity remaining (% of DMSO control = 100)” value in the assay with transglutaminase (TGase) (setting [4]) and in the assay on transglutaminase (TGase) (setting [7]) was 97 in each case.
`Cc1ccc(B(OCCN(C)C)c2ccc(Oc3ccc(B(OCCN(C)C)c4ccc(C)cc4)cc3)cc2)cc1` [Example 446, bis(4,4′-(tolyldimethylaminoethoxyboryl)phenyl)ether]: the x-Fold in assay [1] (setting [2]) and in assay [1] (setting [3]) was 0.85 each time. Further, the “TGase activity remaining (% of DMSO control = 100)” value with transglutaminase (TGase) (setting [4]) and in the assay on transglutaminase (TGase) (setting [5]) was 73 throughout.
With `NCC(N)C(=O)OB(c1ccccc1)c1ccccc1` (stereo not shown) [Example 174, diphenyl(2,3-diaminopropionate-O,N)borane], the x-Fold turned out to be 0.99 in assay [1] (polyglutamine aggregation inhibitory activity, Table 1, listed as 2031-4) and 0.99 in assay [1] (setting [3]). Also, the “TGase activity remaining (% of DMSO control = 100)” value is listed as 103 in the assay with transglutaminase (TGase) (setting [4]) and 103 in the assay on transglutaminase (TGase) (TGase inhibitory activity value, Table 1, listed as 2031-4).
In the case of `NCCC(N)C(=O)OB(c1ccc(Oc2ccc(B(OC(=O)C(N)CCN)c3cccc4ccccc34)cc2)cc1)c1cccc2ccccc12` (stereo not shown) [Example 445, bis(4,4′-(naphthyl 2,4-diaminopropionic acid boryl)phenyl)ether], the x-Fold in assay [1] (setting [2]) and in assay [1] (setting [3]) was 0.49 each time. The “TGase activity remaining (% of DMSO control = 100)” value with transglutaminase (TGase) (setting [4]) and in the assay on transglutaminase (TGase) (setting [5]) was 108 each time.
Consider `FC(F)(F)c1ccc(C(OB(c2ccccc2)c2ccc(COCc3ccc(B(OC(c4ccc(C(F)(F)F)cc4)c4ccccn4)c4ccc(COCc5ccc(B(OC(c6ccc(C(F)(F)F)cc6)c6ccccn6)c6ccccc6)cc5)cc4)cc3)cc2)c2ccccn2)cc1` (stereo not shown) [Example 192, bis((4,4′-phenyl 2-pyridyl-4-trifluoromethylphenylmethoxyboryl)benzyloxybenzyl) 2-pyridyl-4-trifluoromethyl phenylmethoxyborane], for which the x-Fold in assay [1] (setting [6]) and in assay [1] (setting [3]) was 0.95 in each case. In addition, the “TGase activity remaining (% of DMSO control = 100)” value with transglutaminase (TGase) (setting [4]) and in the assay on transglutaminase (TGase) (setting [7]) was 102 each time.
On to `OB(c1ccc(COCc2ccc(B(O)c3ccc(C(F)(F)F)cc3)cc2)cc1)c1ccc(C(F)(F)F)cc1` [Example 407, bis(4,4′-(p-trifluoromethylphenyl-hydroxyboryl)benzyl)ether], for which, in assay [1] (setting [3]), the x-Fold stood at 1.02. Also, the “TGase activity remaining (% of DMSO control = 100)” value in the assay with transglutaminase (TGase) (setting [4]) is given as 77.

For the origin of these results see patent US8853424B2 (Japan Science and Technology Agency, priority 2008, dated 2014).
